Measurements: patent US20260265208A1, “TETRALINE, PHENYLCYCLOBUTANE AND PHENYLCYCLOPENTANE ANALOGS AS RXFP1 AGONISTS” (BRISTOL-MYERS SQUIBB COMPANY, priority 2021, published 2026)

System: not given
Test: not given
Settings: intravenous (IV) formulation; cited from earlier work

Compound | first-phase pharmacokinetic half-life
Serelaxin | 5.4 min

Target: T1, human RXFP1 (Homo sapiens, UniProt Q9HBX9)
T1 construct: expressed in transfected cells
T1 sequence (Q9HBX9 1-757): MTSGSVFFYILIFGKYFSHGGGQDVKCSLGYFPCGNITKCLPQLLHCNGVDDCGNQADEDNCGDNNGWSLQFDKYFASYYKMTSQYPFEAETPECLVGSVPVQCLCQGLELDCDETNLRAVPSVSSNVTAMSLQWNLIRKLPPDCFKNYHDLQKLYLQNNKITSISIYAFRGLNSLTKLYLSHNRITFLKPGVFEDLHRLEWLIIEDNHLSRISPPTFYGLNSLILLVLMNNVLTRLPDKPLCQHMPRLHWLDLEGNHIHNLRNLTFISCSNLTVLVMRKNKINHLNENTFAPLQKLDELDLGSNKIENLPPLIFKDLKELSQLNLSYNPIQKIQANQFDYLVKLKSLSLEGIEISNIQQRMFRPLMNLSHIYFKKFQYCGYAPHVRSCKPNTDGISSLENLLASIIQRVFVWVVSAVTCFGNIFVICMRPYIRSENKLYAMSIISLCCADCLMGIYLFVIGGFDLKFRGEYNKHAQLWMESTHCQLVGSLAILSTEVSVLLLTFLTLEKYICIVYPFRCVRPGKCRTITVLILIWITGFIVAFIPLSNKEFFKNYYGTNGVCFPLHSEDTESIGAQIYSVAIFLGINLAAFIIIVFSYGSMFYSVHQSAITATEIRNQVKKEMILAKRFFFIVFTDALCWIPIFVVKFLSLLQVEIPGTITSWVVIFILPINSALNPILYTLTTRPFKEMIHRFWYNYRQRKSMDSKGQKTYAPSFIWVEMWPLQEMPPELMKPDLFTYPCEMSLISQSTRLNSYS
Test: hRXFP1 HEK293 cAMP assay (HTRF)
Assay type: cell-based
Settings: HEK293 cells stably expressing human RXFP1; phenylcyclohexyl (tetraline) examples
Procedure: RXFP1 Cyclic Adenosine Monophosphate (cAMP) Assays. Human embryonic kidney cells 293 (HEK293) cells and HEK293 cells stably expressing human RXFP1, were cultured in MEM medium supplemented with 10% qualified FBS, and 300 μg/ml hygromycin (Life Technologies). Cells were dissociated and suspended in assay buffer. The assay buffer was HBSS buffer (with calcium and magnesium) containing 20 mM HEPES, 0.05% BSA, and 0.5 mM IBMX. Cells (3000 cells per well, except 1500 cell per well for HEK293 cells stably expressing human RXFP1) were added to 384-well Proxiplates (Perkin-Elmer). Cells were immediately treated with test compounds in DMSO (2% final) at final concentrations in the range of 0.010 nM to 50 μM. Cells were incubated for 30 min at room temperature. The level of intracellular cAMP was determined using the HTRF HiRange cAMP assay reagent kit (Cisbio) according to manufacturer's instructions. Solutions of cryptate conjugated anti-cAMP and d2 fluorophore-labelled cAMP were made in a supplied lysis buffer separately. Upon completion of the reaction, the cells were lysed with equal volume of the d2-cAMP solution and anti-cAMP solution. After a 1 h room temperature incubation, time-resolved fluorescence intensity was measured using the Envision (Perkin-Elmer) at 400 nm excitation and dual emission at 590 nm and 665 nm. A calibration curve was constructed with an external cAMP standard at concentrations ranging from 2.7 μM to 0.1 μM by plotting the fluorescent intensity ratio from 665 nm emission to the intensity from the 590 nm emission against cAMP concentrations. The potency and activity of a compound to […] cAMP production was then determined by fitting to a 4-parametric logistic equation from a plot of cAMP level versus compound concentrations.
The examples disclosed below were tested in the human RXFP1 (hRXFP1) HEK293 cAMP assay described above and found to have agonist activity. Tables 1-3, lists EC50 values in the hRXFP1 HEK293 cAMP assay measured for the examples.

EC50 | Compound
22 nM | COc1ccc(-c2cc(CC(=O)NCC3CCC3)ccc2F)cc1C(=O)Nc1cc2c(cc1C(=O)Nc1ccc(F)c(C(F)(F)F)c1)CCCC2 [Example 9, 3-(5′-(2-((cyclobutylmethyl)amino)-2-oxoethyl)-2′-fluoro-4-methoxy-[1,1′-biphenyl]-3-carboxamido)-N-(4-fluoro-3-(trifluoromethyl)phenyl)-5,6,7,8-tetrahydronaphthalene-2-carboxamide]
33 nM | COc1ccc(-c2cc([C@H](OC(=O)Nc3ccccc3)C(F)(F)F)ccc2F)cc1C(=O)Nc1cc2c(cc1C(=O)Nc1ccc(F)c(C(F)(F)F)c1)CCCC2 [Example 5, (S)-2,2,2-trifluoro-1-(6-fluoro-3′-((3-((4-fluoro-3-(trifluoromethyl)phenyl)carbamoyl)-5,6,7,8-tetrahydronaphthalen-2-yl)carbamoyl)-4′-methoxy-[1,1′-biphenyl]-3-yl)ethyl phenylcarbamate]
2200 nM | COc1ccc(N2CCCS2(=O)=O)cc1C(=O)Nc1cc2c(cc1C(=O)Nc1ccc(F)c(C(F)(F)F)c1)CCCC2 [Example 20, 3-(5-(1,1-dioxidoisothiazolidin-2-yl)-2-methoxybenzamido)-N-(4-fluoro-3-(trifluoromethyl)-phenyl)-5,6,7,8-tetrahydronaphthalene-2-carboxamide]
62 nM | COc1ccc(-c2cc([C@H](OC(=O)NC3CC(F)(F)C3)C(F)(F)F)ccc2F)cc1C(=O)Nc1cc2c(cc1C(=O)Nc1ccc(F)c(C(F)(F)F)c1)CCCC2 [Example 7, (S)-2,2,2-trifluoro-1-(6-fluoro-3′-((3-((4-fluoro-3-(trifluoro-methyl)phenyl)carbamoyl)-5,6,7,8-tetra-hydronaphthalen-2-yl)carbamoyl)-4′-methoxy-[1,1′-biphenyl]-3-yl)ethyl (3,3-difluorocyclo-butyl)carbamate]
3700 nM | COc1ccc(C2=NOC3CNCC23)cc1C(=O)Nc1cc2c(cc1C(=O)Nc1ccc(F)c(C(F)(F)F)c1)CCCC2 (mixture of isomers) [Example 15, N-(4-fluoro-3-(trifluoromethyl)phenyl)-3-(2-methoxy-5-(3a,5,6,6a-tetrahydro-4H-pyrrolo[3,4-d]isoxazol-3-yl)benzamido)-5,6,7,8-tetrahydronaphthalene-2-carboxamide]
860 nM | COc1ccc(-c2cc([C@H](O)C(F)(F)F)ccc2F)cc1C(=O)Nc1cc2c(cc1C(=O)Nc1ccc(F)c(C(F)(F)F)c1)CCCC2 [Example 4, (S)—N-(4-fluoro-3-(trifluoromethyl)phenyl)-3-(2′-fluoro-4-methoxy-5′-(2,2,2-trifluoro-1-hydroxyethyl)-[1,1′-biphenyl]-3-carboxamido)-5,6,7,8-tetrahydronaphthalene-2-carboxamide]

Same assay, conditions: HEK293 cells stably expressing human RXFP1; phenylcyclopentyl examples

EC50 | Compound
160 nM | COc1ccc(C2=NOC3CC(CO)CC23)cc1C(=O)Nc1cc2c(cc1C(=O)Nc1ccc(F)c(C(F)(F)F)c1)CCC2=O (single isomer, unassigned) [Example 28, N-(4-fluoro-3-(trifluoromethyl)phenyl)-6-(5-(5-(hydroxymethyl)-3a,5,6,6a-tetrahydro-4H-cyclopenta[d]isoxazol-3-yl)-2-methoxybenzamido)-1-oxo-2,3-dihydro-1H-indene-5-carboxamide]
34 nM | COc1ccc(C2=NOC3CC(CO)CC23)cc1C(=O)Nc1cc2c(cc1C(=O)Nc1ccc(F)c(C(F)(F)F)c1)CCC2=O (single isomer, unassigned) [Example 27, N-(4-fluoro-3-(trifluoromethyl)phenyl)-6-(5-(5-(hydroxymethyl)-3a,5,6,6a-tetrahydro-4H-cyclopenta[d]isoxazol-3-yl)-2-methoxybenzamido)-1-oxo-2,3-dihydro-1H-indene-5-carboxamide]
3440 nM | COc1ccc(-c2cc(C(=O)O)ccc2F)cc1C(=O)Nc1cc2c(cc1C(=O)Nc1ccc(F)c(C(F)(F)F)c1)CCC2 [Example 24, 6-fluoro-3′-((6-((4-fluoro-3-(trifluoromethyl)phenyl)carbamoyl)-2,3-dihydro-1H-inden-5-yl)carbamoyl)-4′-methoxy-[1,1′-biphenyl]-3-carboxylic acid]
